In publication PMC9950447, “Targeting USP10 induces degradation of oncogenic ANLN in esophageal squamous cell carcinoma” (Cell Death and Differentiation, 2022):

B1: His-ANLN amino acids 1-454 (domain or fragment, human, UniProt Q9NQW6 1-454, looked up)
chain: MDPFTEKLLERTRARRENLQRKMAERPTAAPRSMTHAKRARQPLSEASNQQPLSGGEEKSCTKPSPSKKRCSDNTEVEVSNLENKQPVESTSAKSCSPSPVSPQVQPQAADTISDSVAVPASLLGMRRGLNSRLEATAASSVKTRMQKLAEQRRRWDNDDMTDDIPESSLFSPMPSEEKAASPPRPLLSNASATPVGRRGRLANLAATICSWEDDVNHSFAKQNSVQEQPGTACLSKFSSASGASARINSSSVKQEATFCSQRDGDASLNKALSSSADDASLVNASISSSVKATSPVKSTTSITDAKSCEGQNPELLPKTPISPLKTGVSKPIVKSTLSQTVPSKGELSREICLQSQSKDKSTTPGGTGIKPFLERFGERCQEHSKESPARSTPHRTPIITPNTKAIQERLFKQDTSSSTTHLAQQLKQERQKELACLRGRFDKGNIWSAEKGG
notes: also called His-ANLN mutant

What was measured:
USP10 = biological target: T1, USP10 (Homo sapiens, UniProt Q14694); test: SPR (Biacore T200, His-USP10 immobilized on CM5 chip); supported by Ub-AMC inhibition of purified USP10 (IC50 […]); format: binding
T1 construct: His-USP10
T1 sequence (Q14694 2-798): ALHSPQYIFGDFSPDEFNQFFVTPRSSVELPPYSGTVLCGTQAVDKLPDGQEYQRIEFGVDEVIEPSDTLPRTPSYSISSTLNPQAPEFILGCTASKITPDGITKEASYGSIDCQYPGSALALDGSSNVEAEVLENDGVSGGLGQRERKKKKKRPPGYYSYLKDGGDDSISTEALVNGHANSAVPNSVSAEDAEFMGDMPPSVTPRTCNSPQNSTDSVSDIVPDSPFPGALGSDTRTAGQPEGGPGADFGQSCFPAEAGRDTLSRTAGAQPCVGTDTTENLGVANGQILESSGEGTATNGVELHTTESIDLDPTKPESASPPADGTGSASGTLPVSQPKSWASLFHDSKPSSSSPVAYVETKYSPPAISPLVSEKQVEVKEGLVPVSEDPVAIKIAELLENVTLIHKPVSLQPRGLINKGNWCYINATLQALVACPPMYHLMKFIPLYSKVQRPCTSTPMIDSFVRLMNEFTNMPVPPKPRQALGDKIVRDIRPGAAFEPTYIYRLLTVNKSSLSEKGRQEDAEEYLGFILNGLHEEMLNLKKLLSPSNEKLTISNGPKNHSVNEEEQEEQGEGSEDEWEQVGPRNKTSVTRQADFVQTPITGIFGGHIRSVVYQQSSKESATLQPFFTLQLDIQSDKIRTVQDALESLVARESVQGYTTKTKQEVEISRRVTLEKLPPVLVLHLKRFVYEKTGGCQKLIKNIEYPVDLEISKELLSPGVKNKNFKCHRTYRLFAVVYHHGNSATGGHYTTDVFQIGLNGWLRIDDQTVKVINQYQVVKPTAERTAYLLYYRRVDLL

recombinant GST-USP10 = recombinant GST-USP10 (human, UniProt Q14694-3 1-802); test: pull-down; in vitro GST pull down: GST-tagged protein bound to GST Bind Resin in GST lysis buffer, His-tagged proteins added, 4 °C for 4 h, six washes with PBST, western blot; conditions: both partners purified
Sequence of recombinant GST-USP10 (Q14694 other isoform, or with tags, fused parts or gaps): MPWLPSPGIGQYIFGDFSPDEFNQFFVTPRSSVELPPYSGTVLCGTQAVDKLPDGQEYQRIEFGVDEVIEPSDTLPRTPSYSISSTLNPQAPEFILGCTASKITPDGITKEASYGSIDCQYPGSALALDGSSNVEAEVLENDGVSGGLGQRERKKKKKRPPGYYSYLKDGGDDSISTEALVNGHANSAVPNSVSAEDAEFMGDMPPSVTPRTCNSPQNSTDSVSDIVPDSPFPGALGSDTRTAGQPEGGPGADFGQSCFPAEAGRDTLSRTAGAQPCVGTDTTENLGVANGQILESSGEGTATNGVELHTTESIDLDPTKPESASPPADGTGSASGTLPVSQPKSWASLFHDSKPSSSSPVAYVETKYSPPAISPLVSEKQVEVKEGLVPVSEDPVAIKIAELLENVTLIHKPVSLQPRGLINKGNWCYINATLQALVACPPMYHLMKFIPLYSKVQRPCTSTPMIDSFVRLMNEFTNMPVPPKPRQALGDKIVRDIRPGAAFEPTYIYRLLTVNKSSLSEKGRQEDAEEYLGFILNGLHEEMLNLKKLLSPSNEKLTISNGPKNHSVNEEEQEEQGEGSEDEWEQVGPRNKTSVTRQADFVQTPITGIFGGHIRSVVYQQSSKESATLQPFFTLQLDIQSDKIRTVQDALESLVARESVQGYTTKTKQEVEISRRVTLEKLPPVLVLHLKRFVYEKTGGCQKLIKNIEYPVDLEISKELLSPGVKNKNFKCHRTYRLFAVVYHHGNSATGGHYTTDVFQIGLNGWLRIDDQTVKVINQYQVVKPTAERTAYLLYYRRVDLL

| Molecule | Kd (USP10) [µM] | binding result (recombinant GST-USP10) |
| --- | --- | --- |
| CC1=C[C@H](C)C[C@H](C)[C@H](Cc2cnco2)OC(=O)/C(C)=C\[C@H](C)C[C@H](C)[C@H](Cc2cnco2)OC1=O [F806, FW-04-806] | ~27.5 |  |
| B1 |  | binds |
